According to patent US20190070170A1, “METHOD OF S[…]-1” (Macau University of Science and Technology, priority 2017, published 2019):

Tests used:
[1] = previous studies (Evans 1994; Werner et al. 1992); cited from earlier work
[2] = test system: mPGES-1; assay: mPGES-1 protein expression in hind paws of CIA DBA/1 mice; assay type: in vivo; conditions: SIN 100 mg/kg i.p. or MTX 10 mg/kg/week p.o.
Experimental: Female DBA/1 mice (8-9 weeks old) were purchased from Shanghai SiLaike (SLAC) Laboratory Animal Company (Shanghai, China) and fed with a chow diet and water at room temperature. Equal volume of complete Freuend's adjuvant (CFA) and Bovine Type II Collagen (CII) were mixed and emulsified using a homogenizer (13,000 rpm) on ice. On day 0, DBA/1 mice were immunized by injecting 50 μl of CII in CFA in the tail, approximately 2 cm from the base of the tail. […] The incidence of joint swelling in each group was recorded every two days since drug treatment. […]
Frozen paws were pulverized in liquid nitrogen using a stainless steel mortar and pestle, then re-suspended in 8 volumes of ice-cold PBS from Invitrogen (San Diego, Calif., USA) with 2.6 mM DTT from Promega (Madison, Wis., USA) and 2×Complete Protease Inhibitor mixture from Roche (Mannheim, Germany), and homogenized on ice bath using a tissue homogenizer from T25 digital, IKA (Stanfen, Germany) at 10,000 rpm/min for 5 min. […] The protein concentrations were measured using a Bio-Rad protein assay kit (Hercules, Calif., USA). […]
Whole-cell and nuclear proteins were obtained using RIPA lysis buffer (CST, Boston, Mass., USA) and Nuclear and Cytoplasmic Extraction Reagents kit from Thermo Scientific (Asheville, N.C., USA), respectively. […] The levels of protein expression were measured using Odyssey v3.0 software from Li-COR (Lincoln, Nebr., USA).

[3] = test system: collagen-induced arthritis; assay: Collagen-II induced arthritis (CIA) in DBA/1 mice; assay type: in vivo; conditions: CIA DBA/1 mice; MTX 10 mg/kg/week p.o.
Experimental: Female DBA/1 mice (8-9 weeks old) were purchased from Shanghai SiLaike (SLAC) Laboratory Animal Company (Shanghai, China) and fed with a chow diet and water at room temperature. Equal volume of complete Freuend's adjuvant (CFA) and Bovine Type II Collagen (CII) were mixed and emulsified using a homogenizer (13,000 rpm) on ice. On day 0, DBA/1 mice were immunized by injecting 50 μl of CII in CFA in the tail, approximately 2 cm from the base of the tail. After injection, on day 18, mice with one or more than one paw inflamed were chosen and randomly divided into model group, SIN (100 mg/kg, i.p.) treatment group and MTX (10 mg/kg/week, p.o) treatment group, the mice without immunization were used as normal control. On day 21, these chosen mice were boosted through injecting the same volume of CII in IFA same as the day 0 immunization procedure. The incidence of joint swelling in each group was recorded every two days since drug treatment. Paw thickness (at the ankle joints of the hind paws) of each mouse was obtained by using vernier caliper to record the severity of paw swelling.
Arthritis score of each paw was evaluated every two days during experiment with the following criteria: • 0: no evidence of erythema and swelling; • 1: erythema and mild swelling confirmed to the tarsals or ankle joint; • 2: erythema and mild swelling extending from the ankle to the tarsal joints; • 3: erythema and moderate swelling extending from the ankle to metatarsal joints; and • 4: erythema and severe swelling encompass the ankle, foot and digits, or ankylosis of the limb.
The score of each paw was summed for a score of 0-16 for each mouse. Mice were then sacrificed and hind paws were removed and freshly frozen in liquid nitrogen and stored at −80° C. until used.

SMILES | cardiac side effects [1] | mPGES-1 protein expression in inflamed hind paws [2] | arthritis in CIA mice [3]
C[C@@H]1C[C@H]2[C@@H]3CCC4=CC(=O)C=C[C@]4(C)[C@@]3(F)[C@@H](O)C[C@]2(C)[C@@]1(O)C(=O)CO [DEX, Dexamethasone] | faster heart rates, transient absolute myocardial hypertrophy and increase in systemic blood pressure | – | –
CN(Cc1cnc2nc(N)nc(N)c2n1)c1ccc(C(=O)N[C@@H](CCC(=O)O)C(=O)O)cc1 [MTX, methotrexate, reference compound] | – | no observable effects | no observable effects
